The text below walks through data of patent US12110283B2, “Carbonic anhydrase targeting agents and methods of using same” (VisEn Medical, Inc., priority 2011, dated 2024).

Assay type in all cases: biochemical
Common to all, as to settings: rate of CO2 hydration, stopped flow method

Assay [1] deals with CA XII (Homo sapiens, UniProt O43570). Briefly: Ki by stopped flow CO2 hydration assay, CA XII. On the procedure: (§1) In this experiment, Ki values were determined by measuring the rate of CO2 hydration of the CA spectrophotometrically by a stopped flow method in the presence of varying concentrations of the CA agents.
The target of assay [2] is T1, CA IX (Homo sapiens, UniProt Q16790).
T1 construct: confirming upregulation and expression of CA IX in these cells; endogenous in cells; host or cells: HeLa cells, hypoxic (1% O2) or normoxic
Briefly: Ki by stopped flow CO2 hydration assay, CA IX. As to the method: as §1

In assay [3] the target is CA II (Homo sapiens, UniProt P00918). Briefly: Ki by stopped flow CO2 hydration assay, CA II. On the procedure: as §1
Assay [4] addresses CA XIV (Homo sapiens, UniProt Q9ULX7). Briefly: Ki by stopped flow CO2 hydration assay, CA XIV. On the procedure: as §1

Sequence of CA XII (O43570 25-354, species assumed): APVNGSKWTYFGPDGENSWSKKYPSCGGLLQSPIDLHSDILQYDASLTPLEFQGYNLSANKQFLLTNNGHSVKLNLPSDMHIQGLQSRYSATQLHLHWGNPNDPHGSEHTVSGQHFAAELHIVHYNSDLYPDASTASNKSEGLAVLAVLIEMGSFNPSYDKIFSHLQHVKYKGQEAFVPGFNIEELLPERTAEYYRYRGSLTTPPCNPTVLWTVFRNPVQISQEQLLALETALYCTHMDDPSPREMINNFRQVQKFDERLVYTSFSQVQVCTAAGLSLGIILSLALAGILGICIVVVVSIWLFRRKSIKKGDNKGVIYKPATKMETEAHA
Sequence of CA XIV (Q9ULX7 16-337, species assumed): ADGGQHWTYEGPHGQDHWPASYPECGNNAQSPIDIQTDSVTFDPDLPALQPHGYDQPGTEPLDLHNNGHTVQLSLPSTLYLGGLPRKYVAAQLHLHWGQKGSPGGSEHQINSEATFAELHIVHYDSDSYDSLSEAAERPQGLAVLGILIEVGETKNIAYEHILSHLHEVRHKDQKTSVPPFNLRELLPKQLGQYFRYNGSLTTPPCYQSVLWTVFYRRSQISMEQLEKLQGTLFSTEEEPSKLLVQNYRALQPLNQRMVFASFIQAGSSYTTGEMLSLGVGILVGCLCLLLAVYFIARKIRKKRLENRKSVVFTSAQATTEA

With `CN(CCCC(=O)NCc1ccc(C(=O)Nc2nnc(S(N)(=O)=O)s2)cc1)S(=O)(=O)c1cccc2c3c(ccc12)[N+](CCCS(=O)(=O)[O-])=C(/C=C/C=C/C=C1/N(CCCS(=O)(=O)O)c2ccc4c(S(=O)(=O)O)cc(S(=O)(=O)O)cc4c2C1(C)C)C3(C)C` [Compound A1, 3-(2-((1E,3E,5E)-5-(1,1-dimethyl-6,8-disulfo-3-(3-sulfopropyl)-1H-benzo[e]indol-2(3H)-ylidene)penta-1,3-dien-1-yl)-1,1-dimethyl-6-(N-methyl-N-(4-oxo-4-((4-((5-sulfamoyl-1,3,4-thiadiazol-2-yl)carbamoyl)benzyl)amino)butyl)sulfamoyl)-1H-benzo[e]indol-3-ium-3-yl)propane-1-sulfonate], the Ki (commonly a dissociation constant, usually derived from enzyme kinetics or from competition with a known ligand) is 57 nM in assay [1], 8.4 nM in assay [2], 288 nM in assay [3] and 77 nM in assay [4].
With `CCN1/C(=C/C=C(/C=C/C2=[N+](CC)c3ccc4c(S(=O)(=O)[O-])cc(S(=O)(=O)O)cc4c3C2(C)C)c2ccc(C(=O)NCc3ccc(C(=O)Nc4nnc(S(N)(=O)=O)s4)cc3)cn2)C(C)(C)c2c1ccc1c(S(=O)(=O)O)cc(S(=O)(=O)O)cc21` [Compound A6, 3-ethyl-2-((1E,3Z,5E)-5-(3-ethyl-1,1-dimethyl-6,8-disulfo-1H-benzo[e]indol-2(3H)-ylidene)-3-(5-((4-((5-sulfamoyl-1,3,4-thiadiazol-2-yl)carbamoyl)benzyl)carbamoyl)pyridin-2-yl)penta-1,3-dien-1-yl)-1,1-dimethyl-8-sulfo-1H-benzo[e]indol-3-ium-6-sulfonate], the Ki was 40 nM in assay [1], 7.7 nM in assay [2], 27.1 nM in assay [3] and 84 nM in assay [4].
With `CCN1/C(=C/C=C(/C=C/C2=[N+](CC)c3ccc4c(S(=O)(=O)[O-])cc(S(=O)(=O)O)cc4c3C2(C)C)c2ccc(C(=O)NCc3ccc(S(N)(=O)=O)cc3)cn2)C(C)(C)c2c1ccc1c(S(=O)(=O)O)cc(S(=O)(=O)O)cc21` [Compound B6, 3-ethyl-2-((1E,3Z,5E)-5-(3-ethyl-1,1-dimethyl-6,8-disulfo-1H-benzo[e]indol-2(3H)-ylidene)-3-(5-((4-sulfamoylbenzyl)carbamoyl)pyridin-2-yl)penta-1,3-dien-1-yl)-1,1-dimethyl-8-sulfo-1H-benzo[e]indol-3-ium-6-sulfonate], the Ki in assay [1] was 40 nM; in assay [2], 9.9 nM; in assay [3] it was 502 nM; in assay [4], 69 nM.
